The target of the assay is T1, SMARCA2 (Homo sapiens, UniProt P51531).
T1 construct: endogenous in cells; host or cells: HT1080 (CRISPR HiBiT knock-in clone, generated in house)
Nature of the assay: SMARCA2 HiBiT degradation assay (cellular). Format: cell-based. The conditions noted are these: table head names A549; for DC50: 6 h incubation, HiBiT-tagged SMARCA2, luminescence read-out, read-out: HiBit A549 SMARCA2 IP (nM) 6 h; for Emax: A549, 6 h incubation, Emax = amount of residual protein remaining in the cell following compound treatment.

T1 sequence (P51531 whole entry): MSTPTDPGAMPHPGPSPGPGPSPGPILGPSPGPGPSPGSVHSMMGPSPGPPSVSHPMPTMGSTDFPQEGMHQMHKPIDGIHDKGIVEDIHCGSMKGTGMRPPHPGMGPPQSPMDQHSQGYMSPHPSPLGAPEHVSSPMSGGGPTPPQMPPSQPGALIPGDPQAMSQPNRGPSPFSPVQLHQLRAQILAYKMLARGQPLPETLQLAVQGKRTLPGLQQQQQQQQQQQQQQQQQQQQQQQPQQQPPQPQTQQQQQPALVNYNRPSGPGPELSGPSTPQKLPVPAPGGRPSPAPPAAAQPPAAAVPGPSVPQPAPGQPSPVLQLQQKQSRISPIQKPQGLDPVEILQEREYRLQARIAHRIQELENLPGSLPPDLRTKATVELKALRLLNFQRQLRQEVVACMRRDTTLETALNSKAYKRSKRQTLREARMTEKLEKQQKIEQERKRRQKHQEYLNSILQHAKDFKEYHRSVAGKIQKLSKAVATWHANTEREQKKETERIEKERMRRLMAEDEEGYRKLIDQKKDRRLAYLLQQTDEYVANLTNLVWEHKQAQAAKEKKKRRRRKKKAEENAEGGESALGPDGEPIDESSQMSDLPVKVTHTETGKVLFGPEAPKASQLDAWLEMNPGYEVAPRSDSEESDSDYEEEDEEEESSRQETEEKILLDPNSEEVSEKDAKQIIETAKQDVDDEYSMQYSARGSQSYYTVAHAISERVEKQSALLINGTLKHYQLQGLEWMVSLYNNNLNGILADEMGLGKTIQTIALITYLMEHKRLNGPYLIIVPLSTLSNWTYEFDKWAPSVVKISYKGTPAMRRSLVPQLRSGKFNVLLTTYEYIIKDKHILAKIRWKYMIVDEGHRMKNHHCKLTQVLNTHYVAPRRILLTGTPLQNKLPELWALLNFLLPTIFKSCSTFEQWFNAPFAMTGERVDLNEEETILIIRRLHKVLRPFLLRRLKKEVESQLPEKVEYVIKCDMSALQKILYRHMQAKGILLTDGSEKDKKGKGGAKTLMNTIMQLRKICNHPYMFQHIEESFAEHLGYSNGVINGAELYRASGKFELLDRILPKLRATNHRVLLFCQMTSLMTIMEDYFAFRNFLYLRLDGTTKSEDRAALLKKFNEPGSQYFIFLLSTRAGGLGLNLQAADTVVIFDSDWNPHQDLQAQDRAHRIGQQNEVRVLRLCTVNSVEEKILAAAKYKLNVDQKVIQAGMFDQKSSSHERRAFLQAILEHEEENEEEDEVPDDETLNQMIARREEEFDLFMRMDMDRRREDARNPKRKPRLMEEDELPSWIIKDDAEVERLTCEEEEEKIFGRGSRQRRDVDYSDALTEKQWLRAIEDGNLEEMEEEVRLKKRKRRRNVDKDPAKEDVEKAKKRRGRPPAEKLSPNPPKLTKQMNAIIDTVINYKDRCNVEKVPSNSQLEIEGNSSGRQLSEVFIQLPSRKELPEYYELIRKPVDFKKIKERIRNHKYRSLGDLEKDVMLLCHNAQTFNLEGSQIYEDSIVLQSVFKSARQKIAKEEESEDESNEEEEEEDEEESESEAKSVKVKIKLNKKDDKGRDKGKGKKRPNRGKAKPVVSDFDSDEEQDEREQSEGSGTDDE

For the compound `Nc1nnc(-c2ccccc2O)cc1N1CC2CCC(C1)N2c1cccc(CN2CCC(C(=O)N3CCN(c4ccc5c(c4)C(=O)N(C4CCC(=O)NC4=O)C5=O)CC3)CC2)c1` (racemic) [Example 95, rac-5-[4-[1-[[3-[3-[3-amino-6-(2-hydroxyphenyl)pyridazin-4-yl]-3,8-diazabicyclo[3.2.1]octan-8-yl]phenyl]methyl]piperidine-4-carbonyl]piperazin-1-yl]-2-(2,6-dioxo-3-piperidyl)isoindoline-1,3-dione], the DC50 came out at 13 nM and the maximal effect (Emax) (commonly the greatest response seen or fitted, relative to the assay's reference) was determined as 25%.
On to `Nc1nnc(-c2ccccc2O)cc1N1CC2CCC(C1)N2c1cccc(CN2CCN(C(=O)CN3CCC(c4ccc(OC5CCC(=O)NC5=O)cc4)CC3)CC2)c1` (racemic) [Example 148, rac-3-[4-[1-[2-[4-[[3-[3-[3-Amino-6-(2-hydroxyphenyl)pyridazin-4-yl]-3,8-diazabicyclo[3.2.1]octan-8-yl]phenyl]methyl]piperazin-1-yl]-2-oxo-ethyl]-4-piperidyl]phenoxy]piperidine-2,6-dione], for which the DC50 turned out to be 25 nM and the maximum response (Emax) stood at 33%.
The like results for `Nc1nnc(-c2ccccc2O)cc1N1CCC(C(=O)NCC2CCN(C(=O)CN3CCC(c4ccc(NC5CCC(=O)NC5=O)cc4)CC3)CC2)(c2ccccc2)CC1` (stereo not drawn) [Example 102, 1-[3-amino-6-(2-hydroxyphenyl)pyridazin-4-yl]-N-[[1-[2-[4-[4-[(2,6-dioxopiperidin-3-yl)amino]phenyl]piperidin-1-yl]acetyl]piperidin-4-yl]methyl]-4-phenylpiperidine-4-carboxamide] were, in that order, 102 nM and 38%.
With `Nc1nnc(-c2ccccc2O)cc1N1CC2CCC(C1)N2c1cccc(OCCN2CCN(C(=O)N3CCC(Oc4ccc5c(c4)C(=O)N(C4CCC(=O)NC4=O)C5=O)CC3)CC2)c1` (racemic) [Example 40, rac-5-[[1-[4-[2-[3-[3-[3-amino-6-(2-hydroxyphenyl)pyridazin-4-yl]-3,8-diazabicyclo[3.2.1]octan-8-yl]phenoxy]ethyl]piperazine-1-carbonyl]-4-piperidyl]oxy]-2-(2,6-dioxo-3-piperidyl)isoindoline-1,3-dione], the DC50 is 22 nM and the Emax amounted to 32%.
Take `Nc1nnc(-c2ccccc2O)cc1N1CCC(C(=O)NCC2CCN(C(=O)C3CCN(c4ccc5c(c4)C(=O)N(C4CCC(=O)NC4=O)C5=O)CC3)CC2)(c2ccccc2)CC1` (stereo not drawn) [Example 86, 1-[3-amino-6-(2-hydroxyphenyl)pyridazin-4-yl]-N-[[1-[1-[2-(2,6-dioxo-3-piperidyl)-1,3-dioxo-isoindolin-5-yl]piperidine-4-carbonyl]-4-piperidyl]methyl]-4-phenyl-piperidine-4-carboxamide]: the DC50 was 59 nM and the Emax stood at 37%.
`Nc1nnc(-c2ccccc2O)cc1N1CCC(C(=O)N2CCC(NC(=O)C3CCN(c4ccc5c(c4)C(=O)N(C4CCC(=O)NC4=O)C5=O)CC3)CC2)(c2ccccc2)CC1` (stereo not drawn) [Example 119, N-(1-(1-(3-amino-6-(2-hydroxyphenyl)pyridazin-4-yl)-4-phenylpiperidine-4-carbonyl)piperidin-4-yl)-1-(2-(2,6-dioxopiperidin-3-yl)-1,3-dioxoisoindolin-5-yl)piperidine-4-carboxamide]: the DC50 came to 35 nM and the maximal response (Emax) was 50%.
Turning to `Nc1nnc(-c2ccccc2O)cc1N1CCC(C(=O)N2CC3(CCN(C(=O)CC4CCN(c5ccc6c(c5)C(=O)N(C5CCC(=O)NC5=O)C6=O)CC4)C3)C2)(c2ccccc2)CC1` (stereo not drawn) [Example 187, 5-(4-(2-(2-(1-(3-amino-6-(2-hydroxyphenyl)pyridazin-4-yl)-4-phenylpiperidine-4-carbonyl)-2,6-diazaspiro[3.4]octan-6-yl)-2-oxoethyl)piperidin-1-yl)-2-(2,6-dioxopiperidin-3-yl)isoindoline-1,3-dione], the DC50 came to 579 nM and the Emax came out at 53%.
As for `Nc1nnc(-c2ccccc2O)cc1N1CC2CCC(C1)N2c1cccc(OCCN2CCN(C(=O)CCCCCCCCNc3cccc4c3C(=O)N(C3CCC(=O)NC3=O)C4=O)CC2)c1` (stereo not drawn) [Example 6, 4-[[9-[4-[2-[3-[3-[3-amino-6-(2-hydroxyphenyl)pyridazin-4-yl]-3,8-diazabicyclo[3.2.1]octan-8-yl]phenoxy]ethyl]piperazin-1-yl]-9-oxo-nonyl]amino]-2-(2,6-dioxo-3-piperidyl)isoindoline-1,3-dione], the DC50 came to 334 nM and the Emax is 58%.
Take `Nc1nnc(-c2ccccc2O)cc1N1CCC(CNC(=O)C2CCN(c3cccc4c3C(=O)N(C3CCC(=O)NC3=O)C4=O)CC2)(c2ccccc2)CC1` (stereo not drawn) [Example 71, N-[[1-[3-amino-6-(2-hydroxyphenyl)pyridazin-4-yl]-4-phenyl-4-piperidyl]methyl]-1-[2-(2,6-dioxo-3-piperidyl)-1,3-dioxo-isoindolin-4-yl]piperidine-4-carboxamide]: the DC50 was 326 nM and the maximal response (Emax) stood at 46%.
Take `Nc1nnc(-c2ccccc2O)cc1N1CCC(C(=O)N2CCC3(CC2)CN(C(=O)C2CCN(c4ccc5c(c4)C(=O)N(C4CCC(=O)NC4=O)C5=O)CC2)CCO3)(c2ccccc2)CC1` (stereo not drawn) [Example 167, 5-(4-(9-(1-(3-amino-6-(2-hydroxyphenyl)pyridazin-4-yl)-4-phenylpiperidine-4-carbonyl)-1-oxa-4,9-diazaspiro[5.5]undecane-4-carbonyl)piperidin-1-yl)-2-(2,6-dioxopiperidin-3-yl)isoindoline-1,3-dione]: the DC50 worked out at 54 nM and the Emax was 43%.
For the compound `Nc1nnc(-c2ccccc2O)cc1N1CC(Oc2cccc(CN3CCN(C(=O)CN4CCC(c5ccc(NC6CCC(=O)NC6=O)cc5)CC4)CC3)c2)C1` (racemic) [Example 156, rac-3-[4-[1-[2-[4-[[3-[1-[3-amino-6-(2-hydroxyphenyl)pyridazin-4-yl]azetidin-3-yl]oxyphenyl]methyl]piperazin-1-yl]-2-oxo-ethyl]-4-piperidyl]anilino]piperidine-2,6-dione], the DC50 was 3 nM and the Emax amounted to 17%.
The like results for `Nc1nnc(-c2ccccc2O)cc1N1CCC(C(=O)N2CC3(CCN(CCC4CCN(c5ccc6c(c5)C(=O)N(C5CCC(=O)NC5=O)C6=O)CC4)C3)C2)(c2ccccc2)CC1` (stereo not drawn) [Example 191, 5-(4-(2-(2-(1-(3-amino-6-(2-hydroxyphenyl)pyridazin-4-yl)-4-phenylpiperidine-4-carbonyl)-2,6-diazaspiro[3.4]octan-6-yl)ethyl)piperidin-1-yl)-2-(2,6-dioxopiperidin-3-yl)isoindoline-1,3-dione] were, in that order, 30 nM and 37%.
As to `Nc1nnc(-c2ccccc2O)cc1N1CCC(CNC(=O)COc2ccc3c(c2)C(=O)N(C2CCC(=O)NC2=O)C3=O)(c2ccccc2)CC1` (stereo not drawn) [Example 73, N-((1-(3-amino-6-(2-hydroxyphenyl)pyridazin-4-yl)-4-phenylpiperidin-4-yl)methyl)-2-((2-(2,6-dioxopiperidin-3-yl)-1,3-dioxoisoindolin-5-yl)oxy)acetamide], the DC50 was 114 nM and the Emax amounted to 49%.
Turning to `Nc1nnc(-c2ccccc2O)cc1N1CC2CCC(C1)N2c1cccc(CN2CCN(C(=O)CCC3CCN(c4ccc5c(c4)C(=O)N(C4CCC(=O)NC4=O)C5=O)CC3)CC2)n1` (racemic) [Example 133, rac-5-[4-[3-[4-[[6-[3-[3-amino-6-(2-hydroxyphenyl)pyridazin-4-yl]-3,8-diazabicyclo[3.2.1]octan-8-yl]-2-pyridyl]methyl]piperazin-1-yl]-3-oxo-propyl]-1-piperidyl]-2-(2,6-dioxo-3-piperidyl)isoindoline-1,3-dione], the DC50 worked out at 64 nM and the maximum response (Emax) was 44%.
As to `Nc1nnc(-c2ccccc2O)cc1N1CC2CCC(C1)N2c1cccc(OCCN2CCN(C(=O)CN3CCC(c4ccc(OC5CCC(=O)NC5=O)cn4)CC3)CC2)c1` (stereo not drawn) [Example 198, 3-[[6-[1-[2-[4-[2-[3-[3-[3-amino-6-(2-hydroxyphenyl)pyridazin-4-yl]-3,8-diazabicyclo[3.2.1]octan-8-yl]phenoxy]ethyl]piperazin-1-yl]-2-oxo-ethyl]-4-piperidyl]-3-pyridyl]oxy]piperidine-2,6-dione], the DC50 worked out at 277 nM and the Emax is 68%.
For `Nc1nnc(-c2ccccc2O)cc1N1CC2CCC(C1)N2c1cccc(OC2CCC(CC(=O)N3CC4(C3)CN(C(=O)C3CCN(c5ccc6c(c5)C(=O)N(C5CCC(=O)NC5=O)C6=O)CC3)C4)CC2)c1` (racemic) [Example 31, rac-5-[4-[6-[2-[4-[3-[3-[3-amino-6-(2-hydroxyphenyl)pyridazin-4-yl]-3,8-diazabicyclo[3.2.1]octan-8-yl]phenoxy]cyclohexyl]acetyl]-2,6-diazaspiro[3.3]heptane-2-carbonyl]-1-piperidyl]-2-(2,6-dioxo-3-piperidyl)isoindoline-1,3-dione], the DC50 worked out at 383 nM and the maximal effect (Emax) was found to be 55%.
With `Nc1nnc(-c2ccccc2O)cc1OC1CCCN(c2ccc(OCCN3CCN(C(=O)CCCCCCCCCCCn4cc(CNc5cccc6c5C(=O)N(C5CCC(=O)NC5=O)C6=O)nn4)CC3)cc2)C1` (stereo not drawn) [Example 23, 4-[[1-[12-[4-[2-[4-[3-[3-amino-6-(2-hydroxyphenyl)pyridazin-4-yl]oxy-1-piperidyl]phenoxy]ethyl]piperazin-1-yl]-12-oxo-dodecyl]triazol-4-yl]methylamino]-2-(2,6-dioxo-3-piperidyl)isoindoline-1,3-dione], the DC50 is 157 nM and the Emax came to 45%.
Take `Nc1nnc(-c2ccccc2O)cc1N1CCN(c2cccc(CN3CCN(C(=O)CCC4CCN(c5ccc6c(c5)C(=O)N(C5CCC(=O)NC5=O)C6=O)CC4)CC3)c2)C2(CC2)C1` (stereo not drawn) [Example 128, 5-(4-(3-(4-(3-(7-(3-amino-6-(2-hydroxyphenyl)pyridazin-4-yl)-4,7-diazaspiro[2.5]octan-4-yl)benzyl)piperazin-1-yl)-3-oxopropyl)piperidin-1-yl)-2-(2,6-dioxopiperidin-3-yl)isoindoline-1,3-dione]: the DC50 came out at 18 nM and the maximal effect (Emax) amounted to 37%.

(Values after patent US20230024096A1, “BIFUNCTIONAL COMPOUNDS FOR THE TREATMENT OF CANCER” (Hoffmann-La Roche Inc., priority 2019, published 2023).)
